From BindingDB's records for doi:10.1021/jm0101390 (Harvard Medical School, 2001) come the findings set out here.

This assay has as its target Aldehyde dehydrogenase, mitochondrial (Mesocricetus auratus). In words: Inhibition of hamster liver aldehyde dehydrogenase ALDH-2.
As to `O=C(O)COc1ccc2c(=O)c(-c3ccc(O)cc3)coc2c1` [2-(3-(4-hydroxyphenyl)-4-oxo-4H-chromen-7-yloxy)acetic acid], half-maximal inhibition (IC50) required 1200 nM.

In the case of `CCCCC(Oc1ccc2c(=O)c(-c3ccc(O)cc3)coc2c1)C(=O)OCC` (configuration not stated) [2-[3-(4-Hydroxy-phenyl)-4-oxo-4H-chromen-7-yloxy]-hexanoic acid ethyl ester], the half-maximal inhibitory concentration (IC50) (in general, the point on the concentration scale where inhibition reaches its midpoint) came to 4500 nM. Compared with the last molecule, the IC50 is about 3.8-fold higher.

The molecule `CCCCCCC(Oc1ccc2c(=O)c(-c3ccc(O)cc3)coc2c1)C(=O)OCC` (configuration not stated) [2-[3-(4-Hydroxy-phenyl)-4-oxo-4H-chromen-7-yloxy]-octanoic acid ethyl ester] returned an IC50 of 7200 nM.

`CCCCCCC(Oc1ccc2c(=O)c(-c3ccc(O)cc3)coc2c1)C(=O)O` (configuration not stated) [2-[3-(4-Hydroxy-phenyl)-4-oxo-4H-chromen-7-yloxy]-octanoic acid] registered a 50% inhibitory concentration (IC50) of 2000 nM.

`CC(Oc1ccc2c(=O)c(-c3ccc(O)cc3)coc2c1)C(=O)O` (configuration not stated) [2-[3-(4-Hydroxy-phenyl)-4-oxo-4H-chromen-7-yloxy]-propionic acid] showed an IC50 of 2500 nM. The IC50 values of the last two molecules are within 1.5-fold of each other.

`CC(C)Oc1ccc2c(=O)c(-c3ccc(O)cc3)coc2c1` [3-(4-Hydroxy-phenyl)-7-isopropoxy-chromen-4-one] returned an IC50 of 80 nM. This IC50 is about 31-fold lower than that of the molecule before.

As for `CCOC(=O)CCCCOc1ccc2c(=O)c(-c3ccc(O)cc3)coc2c1` [5-[3-(4-Hydroxy-phenyl)-4-oxo-4H-chromen-7-yloxy]-pentanoic acid ethyl ester], half-maximal inhibition (IC50) required 240 nM. Against the preceding molecule, the IC50 is about 3-fold higher.

Regarding `O=C(O)CCCCOc1ccc2c(=O)c(-c3ccc(O)cc3)coc2c1` [5-[3-(4-Hydroxy-phenyl)-4-oxo-4H-chromen-7-yloxy]-pentanoic acid], it took 100 nM to reach half-maximal inhibition (IC50).

As for `CCOC(=O)CCCCCOc1ccc2c(=O)c(-c3ccc(O)cc3)coc2c1` [6-[3-(4-Hydroxy-phenyl)-4-oxo-4H-chromen-7-yloxy]-hexanoic acid ethyl ester], the IC50 came out at 280 nM. This IC50 lies about 2.8-fold higher than the previous one.

In the case of `O=c1c(-c2ccc(O)cc2)coc2cc(OCCOCCOCCO)ccc12` [7-(2-(2-(2-hydroxyethoxy)ethoxy)ethoxy)-3-(4-hydroxyphenyl)-4H-chromen-4-one], the midpoint of inhibition, the IC50, lay at 40 nM.

The molecule `NCCCCOc1ccc2c(=O)c(-c3ccc(O)cc3)coc2c1` [7-(4-Amino-butoxy)-3-(4-hydroxy-phenyl)-chromen-4-one] yielded an IC50 of 250 nM.

As to `NCCCCCCOc1ccc2c(=O)c(-c3ccc(O)cc3)coc2c1` [7-(6-Amino-hexyloxy)-3-(4-hydroxy-phenyl)-chromen-4-one], the IC50 worked out at 100 nM.

`O=c1c(-c2ccc(O)cc2)coc2cc(OCCCCCCO)ccc12` [7-(6-Hydroxy-hexyloxy)-3-(4-hydroxy-phenyl)-chromen-4-one] showed an IC50 of 120 nM.

For `O=c1c(-c2ccc(O)cc2)coc2cc(OCCCCCCCCCO)ccc12` [7-(9-Hydroxy-nonyloxy)-3-(4-hydroxy-phenyl)-chromen-4-one], 700 nM corresponded to half-maximal inhibition (IC50). Against the preceding molecule, the IC50 is about 5.8-fold higher.

As for `O=c1c(-c2ccc(O)cc2)coc2cc(OCCCCCCCCCCCCO)ccc12` [7-(12-Hydroxy-dodecyloxy)-3-(4-hydroxy-phenyl)-chromen-4-one], it took 1700 nM to reach half-maximal inhibition (IC50).

On to `CCCCCCCCCCCCOc1ccc2c(=O)c(-c3ccc(O)cc3)coc2c1` [7-(dodecyloxy)-3-(4-hydroxyphenyl)-4H-chromen-4-one], for which the IC50 is greater than 9000 nM.

`C=CCOc1ccc2c(=O)c(-c3ccc(O)cc3)coc2c1` [7-Allyloxy-3-(4-hydroxy-phenyl)-chromen-4-one] came in with a half-maximal inhibitory concentration (IC50) of 180 nM.

The molecule `CC1=C(c2ccccc2)C(=O)OC2CC(Cl)CCC12` (configuration not stated) [7-Chloro-4-methyl-3-phenyl-4a,5,6,7,8,8a-hexahydro-chromen-2-one] came in with a concentration for half-maximal inhibition (IC50) of 150 nM.

`CCOc1ccc2c(=O)c(-c3ccc(O)cc3)coc2c1` [7-Ethoxy-3-(4-hydroxy-phenyl)-chromen-4-one] came in with an IC50 of 80 nM.

For `C=CCCCCOc1ccc2c(=O)c(-c3ccc(O)cc3)coc2c1` [7-Hex-5-enyloxy-3-(4-hydroxy-phenyl)-chromen-4-one], the midpoint of inhibition, the IC50, lay at 150 nM. This IC50 lies about 1.9-fold higher than the previous one.

`CCCCCCOc1ccc2c(=O)c(-c3ccc(O)cc3)coc2c1` [7-Hexyloxy-3-(4-hydroxyphenyl)chromen-4-one] yielded a 50% inhibitory concentration (IC50) of 1500 nM.

For `O=C(O)CCCCCCOc1ccc2c(=O)c(-c3ccc(O)cc3)coc2c1` [7-[3-(4-Hydroxy-phenyl)-4-oxo-4H-chromen-7-yloxy]-heptanoic acid], the IC50 stood at 50 nM.

On to `O=C(O)CCCCCCCOc1ccc2c(=O)c(-c3ccc(O)cc3)coc2c1` [8-(3-(4-hydroxyphenyl)-4-oxo-4H-chromen-7-yloxy)octanoic acid], for which the IC50 turned out to be 40 nM. The IC50 values of the last two molecules are within 1.5-fold of each other.

On to `O=C(O)CCCCCCCCCOc1ccc2c(=O)c(-c3ccc(O)cc3)coc2c1` [10-(3-(4-hydroxyphenyl)-4-oxo-4H-chromen-7-yloxy)decanoic acid], for which half-maximal inhibition (IC50) was put at 50 nM.

Consider `O=C(O)CCCCCCCCCCCOc1ccc2c(=O)c(-c3ccc(O)cc3)coc2c1` [12-(3-(4-hydroxyphenyl)-4-oxo-4H-chromen-7-yloxy)dodecanoic acid], for which the half-maximal inhibitory concentration (IC50) came out at 130 nM.

`O=C(O)CCCCCCCCCCCCCCCOc1ccc2c(=O)c(-c3ccc(O)cc3)coc2c1` [16-[3-(4-Hydroxy-phenyl)-4-oxo-4H-chromen-7-yloxy]-hexadecanoic acid] displayed an IC50 greater than 9000 nM.

Turning to `CCOC(=O)COc1ccc2c(=O)c(-c3ccc(O)cc3)coc2c1` [[3-(4-Hydroxy-phenyl)-4-oxo-4H-chromen-7-yloxy]-acetic acid ethyl ester], the IC50 came to 130 nM.
